Results reported in patent publication US12070444B2, “Modulation of molecular markers using S-equol” (Board of Regents, The University of Texas System, priority 2020, dated 2024).

What was measured:
[1] = test system: B16 melanoma tumor cell line; assay: B16 melanoma tumor challenge in mice treated with S-equol and/or anti-PD-1 antibody; assay type: in vivo, mouse
Method: FIG. 4. A schema for combination therapy. Mice were administered one of: (1) vehicle+rat IgG2a; (2) S-equol+rat IgG2a; (3) vehicle+anti-PD-1 antibody; or (4) S-equol+anti-PD-1 antibody. Mice receiving anti-PD-1 antibody were given 250 μg every 3 days, intraperitoneally, and mice receiving S-equol were given 50 mg/kg per day by oral gavage. Treatment started 7 days after tumor challenge with B16 melanoma.
Melanoma cell line B16 was tested to determine the effects of a PD-1 inhibitor, S-equol and a combination of the two therapies on tumor growth. This experimental design includes four arms: (1) controls, (2) αPD-1, (3) S-equol, and (4) αPD-1+S-equol (FIG. 4) by injecting into mice 5×10^5 cells subcutaneously. Antibodies were administered α-PD-1: 250 μg/mice by i.p. injection every 3 days and S-equol was administered at 50 mg/kg/day by oral gavage. Treatment began 7 day after tumor challenge. Tumor growth trajectories were compared within treated mice using a repeated measures linear mixed model. The primary outcome was the logarithm of the tumor size, and the test statistic is the treatment×time interaction. Tumors were measured about 10 times. The number of recipient mice use used in the studies (n=6 per group) was based on the above study.
For tumor studies, 8 to 10-week-old mice were used. M-Wnt (5 Å˜10^5 cells), E0771 (5 Å˜10^5 cells), AT-3 (2 Å˜10^5 cells), and EMT-6 (5 Å˜10^5 cells) tumor cells were subcutaneously inoculated into the fourth mammary pad. B16F10 (0.5 Å˜10^6 cells) and MC38 (5 Å˜10^6 cells) tumor cells were subcutaneously inoculated into the back flank. Tumor volume was measured with calipers (0.5 Å˜length Å˜width2) on the indicated days. Anti-IgG2a (BioXcell, Cat: #BE0146) and anti-PD-1 (BioXcell, Cat: #BE0089) antibodies were administered through intraperitoneal (i.p.) injection at a dose of […] every 3 days starting on day 7 after tumor challenge for the duration as indicated. S-equol (from Ausio Pharmaceuticals) was administered daily by oral gavage at 50 mg/kg beginning on the day of tumor challenge and continuing throughout the entire tumor growth experiments.

ERβ pY36 = target: T1, ERβ pY36 (Homo sapiens, UniProt Q92731); assay: pY36-specific phosphorylation signal of ERβ in MDA-MB-231 cells; assay type: cell-based; settings: MDA-MB-231 cells (FIG. 16A)
T1 construct: host or cells: MDA-MB-231 (human TNBC cell line)
Source text: FIG. 16. […] See, Yuan et al. (2016) listed below, which is incorporated by reference herein for all purposes.

[2] = test system: E0771 mammary tumor cell line; assay: E0771 mammary tumor challenge in mice treated with S-equol and/or anti-PD-1 antibody; assay type: in vivo, mouse; settings: E0771 mammary tumor model, Example 14, four arms (FIG. 33A-B)
Method: The following three murine mammary tumor lines were tested to determine the effects of a PD-1 inhibitor, S-equol and a combination of the two therapies on tumor growth: (1) E0771 (B6 background), (2) AT-3 (B6 background), and (3) 4T1 (BalbC background). This experimental design includes four arms (using AT-3 as an example): (1) controls, (2) αPD-1, (3) S-equol, and (4) αPD-1+S-equol (FIG. 3) by injecting into mice 2×10^5 cells subcutaneously into the 4th mammary gland fat pad. Antibodies were administered α-PD-1: 200 μg/mice by i.p. injection every 3 days and S-equol was administered at 50 mg/kg/day by oral gavage. Treatment began 7 day after tumor challenge. Tumor growth trajectories were compared within treated mice using a repeated measures linear mixed model. The primary outcome was the logarithm of the tumor size, and the test statistic is the treatment×time interaction. Tumors were measured about 10 times. The number of recipient mice use used in the studies (n=8 per group) was based on the above study.
For tumor studies, 8 to 10-week-old mice were used. M-Wnt (5 Å˜10^5 cells), E0771 (5 Å˜10^5 cells), AT-3 (2 Å˜10^5 cells), and EMT-6 (5 Å˜10^5 cells) tumor cells were subcutaneously inoculated into the fourth mammary pad. […] Tumor volume was measured with calipers (0.5 Å˜length Å˜width2) on the indicated days. […]

rat hippocampal neurons = settings: cited from earlier work
ERβ = target: T2, ERβ (Mus musculus, UniProt O08537); assay: TCR activated ERβ tyrosine phosphorylation after anti-CD3/CD28 stimulation (IP-Western blot); assay type: cell-based; settings: anti-CD3/CD28-stimulated cells, pretreated with S-equol for 4 hrs (FIG. 26A)
T2 construct: endogenous in cells; b180 instead says mouse 'EF4' (probably EL4) lymphoma cells
Source text: FIG. 26. ERβ agonist S-equol promotes CD8+ T cell activation and antitumor immunotherapy. […] FIGS. 26B and 26C show B16 melanoma growth and tumor weight from wild type C57BL/6J male mice with four arm treatments. Vehicle+α-IgG, 5-equol+α-IgG, Vehicle+α-PD-1, S-equol+α-PD-1. […] Vehicle+α-IgG, S-equol+α-IgG, Vehicle+α-PD-1, S-equol+α-PD-1. GSEA analysis in ERβ-high versus ERβ-low human melanoma TILs (tumor infiltrating lymphocytes). The enrichment of (FIG. 26F) NFAT pathway and (FIG. 26G) TNFα signaling were evaluated.
Cells were stained and sorted as previously described (Clark, 2016), using LSR II and FACSAria hardware and analyzed by FACSDiva (BD Bioscience) and FlowJo software (FlowJo, LLC). CD8+ T cell isolation and in vitro activationCD8+ T cells were isolated from the spleens under aseptic conditions. Individual spleens were homogenized to release splenocytes. […] Single-cell suspensions from individual spleens were pooled, filtered through 70 μm and 40 μm cell strainer (Fisher) and counted. […]
Isolated mouse spleen and bone marrow were lysed in RIPA Lysis and 218 Extraction Buffer. Protein amounts were determined by using Pierce BCA Protein Assay Kits (Pierce, Cat: #23225). […] Proteins were detected with ECL SuperSignal™ West Pico PLUS Chemiluminescent Substrate (Thermo Fisher, Cat. #34580).

T2 sequence (O08537 whole entry): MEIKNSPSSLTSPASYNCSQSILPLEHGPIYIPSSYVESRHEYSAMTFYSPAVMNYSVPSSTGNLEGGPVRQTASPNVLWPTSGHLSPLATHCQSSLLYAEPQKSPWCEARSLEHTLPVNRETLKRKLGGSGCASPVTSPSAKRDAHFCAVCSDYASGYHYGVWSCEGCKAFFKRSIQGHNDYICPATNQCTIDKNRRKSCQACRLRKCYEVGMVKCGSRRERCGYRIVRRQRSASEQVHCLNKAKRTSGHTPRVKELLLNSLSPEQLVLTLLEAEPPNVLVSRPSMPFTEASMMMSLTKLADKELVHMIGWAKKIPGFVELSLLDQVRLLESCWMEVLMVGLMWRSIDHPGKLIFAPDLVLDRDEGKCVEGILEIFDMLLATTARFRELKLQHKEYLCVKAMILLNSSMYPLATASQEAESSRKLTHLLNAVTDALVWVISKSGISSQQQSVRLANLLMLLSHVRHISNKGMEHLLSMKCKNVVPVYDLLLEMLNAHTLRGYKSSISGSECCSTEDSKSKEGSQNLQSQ
T1 sequence (Q92731 whole entry): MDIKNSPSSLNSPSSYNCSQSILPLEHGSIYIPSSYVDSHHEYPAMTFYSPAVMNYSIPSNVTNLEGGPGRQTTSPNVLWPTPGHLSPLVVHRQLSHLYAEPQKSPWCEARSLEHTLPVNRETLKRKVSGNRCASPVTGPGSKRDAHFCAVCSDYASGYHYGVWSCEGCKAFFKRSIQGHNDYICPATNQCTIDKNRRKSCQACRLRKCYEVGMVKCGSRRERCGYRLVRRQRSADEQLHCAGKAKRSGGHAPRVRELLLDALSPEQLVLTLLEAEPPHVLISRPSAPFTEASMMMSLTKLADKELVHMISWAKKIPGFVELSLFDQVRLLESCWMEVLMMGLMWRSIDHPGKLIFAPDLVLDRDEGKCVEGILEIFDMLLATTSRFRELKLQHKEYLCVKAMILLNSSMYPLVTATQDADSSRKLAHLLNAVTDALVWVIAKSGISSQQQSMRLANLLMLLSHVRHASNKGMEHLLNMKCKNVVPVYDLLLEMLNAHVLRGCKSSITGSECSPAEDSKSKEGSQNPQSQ

- pY36-specific phosphorylation signal (ERβ pY36): enhanced
- TCR activated ERβ tyrosine phosphorylation (ERβ): further enhanced
SMILES: Oc1ccc([C@H]2COc3cc(O)ccc3C2)cc1 [S-equol]
- tumor weight ([1]; B16 melanoma (FIG. 8A)): reduce tumor weight compared to control
- tumor response (growth and tumor weight) ([1]; B16 melanoma, Example 14, four arms (FIG. 26B-C)): responded
- tumor volume ([1]; B16 melanoma, anti-PD-1 250 μg every 3 days i.p., S-equol 50 mg/kg per day oral gavage, over 12 days post-challenge (FIG. 6)): reduce tumor volume compared to control
- tumor volume ([1]; B16 melanoma, anti-PD-1 250 μg every 3 days i.p., S-equol 50 mg/kg per day oral gavage, over 19 days post-challenge (FIG. 7)): reduce tumor volume compared to control
- tumor volume ([1]; B16 melanoma, legend headed over 16 days, text says over 12 days post-challenge (FIG. 9A)): reduce tumor volume compared to control
- tumor response (volume and weight) [2]: responded
- respiratory and maximal glycolysis fluxes (rat hippocampal neurons): increase
